Consider six compounds from ChEMBL document CHEMBL1127237, “Analogs of UK 14,304 as 2-adrenoceptor agonists. Twist and agent polarity as design elements” (Bioorg Med Chem Lett, 1994).

The target in data set [1] is T1, Adrenergic receptor alpha-2 (Homo sapiens, UniProt P08913+P18825+P18089).
T1 sequence (P08913 whole entry): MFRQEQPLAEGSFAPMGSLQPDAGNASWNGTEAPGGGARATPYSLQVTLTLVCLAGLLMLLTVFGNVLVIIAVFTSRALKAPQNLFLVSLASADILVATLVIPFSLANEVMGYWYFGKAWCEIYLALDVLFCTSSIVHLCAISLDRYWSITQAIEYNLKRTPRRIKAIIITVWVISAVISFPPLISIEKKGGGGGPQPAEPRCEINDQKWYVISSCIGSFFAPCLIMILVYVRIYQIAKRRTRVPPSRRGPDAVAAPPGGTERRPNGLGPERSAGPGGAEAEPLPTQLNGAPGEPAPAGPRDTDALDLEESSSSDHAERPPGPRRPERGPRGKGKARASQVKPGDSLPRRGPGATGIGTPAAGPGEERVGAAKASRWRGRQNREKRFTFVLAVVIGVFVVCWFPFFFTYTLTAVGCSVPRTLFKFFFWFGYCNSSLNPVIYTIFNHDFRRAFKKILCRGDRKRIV
T1 sequence (P18825 whole entry): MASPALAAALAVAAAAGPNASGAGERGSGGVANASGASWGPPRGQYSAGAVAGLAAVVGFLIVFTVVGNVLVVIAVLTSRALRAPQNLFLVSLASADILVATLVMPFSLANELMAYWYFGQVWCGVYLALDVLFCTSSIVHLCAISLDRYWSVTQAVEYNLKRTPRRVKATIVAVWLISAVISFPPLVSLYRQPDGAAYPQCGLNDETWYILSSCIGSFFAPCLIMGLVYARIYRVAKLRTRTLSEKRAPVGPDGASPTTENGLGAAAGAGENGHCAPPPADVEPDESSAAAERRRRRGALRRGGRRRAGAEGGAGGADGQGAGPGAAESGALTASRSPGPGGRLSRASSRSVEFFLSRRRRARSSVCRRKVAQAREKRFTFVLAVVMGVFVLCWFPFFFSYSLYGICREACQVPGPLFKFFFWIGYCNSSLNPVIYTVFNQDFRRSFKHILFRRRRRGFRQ
T1 sequence (P18089 whole entry): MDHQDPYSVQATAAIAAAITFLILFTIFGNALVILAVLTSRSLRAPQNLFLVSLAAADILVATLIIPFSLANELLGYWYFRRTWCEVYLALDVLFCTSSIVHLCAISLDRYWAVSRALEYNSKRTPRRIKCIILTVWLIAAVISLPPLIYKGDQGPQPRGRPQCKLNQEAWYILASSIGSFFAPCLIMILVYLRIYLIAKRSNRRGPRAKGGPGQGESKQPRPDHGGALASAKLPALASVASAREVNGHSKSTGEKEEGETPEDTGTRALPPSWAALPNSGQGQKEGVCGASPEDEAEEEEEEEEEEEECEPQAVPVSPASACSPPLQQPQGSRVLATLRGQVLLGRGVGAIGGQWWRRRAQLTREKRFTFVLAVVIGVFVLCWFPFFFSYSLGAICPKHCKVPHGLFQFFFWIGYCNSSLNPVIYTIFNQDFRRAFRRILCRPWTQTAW
Nature of the data set: Binding affinity towards Alpha-2 adrenergic receptor in HT-29 cells. Type of data set: cell-based.

The target of data set [2] is T2, Adrenergic receptor alpha-1 (Homo sapiens, UniProt P35348+P25100+P35368).
T2 sequence (P35348 whole entry): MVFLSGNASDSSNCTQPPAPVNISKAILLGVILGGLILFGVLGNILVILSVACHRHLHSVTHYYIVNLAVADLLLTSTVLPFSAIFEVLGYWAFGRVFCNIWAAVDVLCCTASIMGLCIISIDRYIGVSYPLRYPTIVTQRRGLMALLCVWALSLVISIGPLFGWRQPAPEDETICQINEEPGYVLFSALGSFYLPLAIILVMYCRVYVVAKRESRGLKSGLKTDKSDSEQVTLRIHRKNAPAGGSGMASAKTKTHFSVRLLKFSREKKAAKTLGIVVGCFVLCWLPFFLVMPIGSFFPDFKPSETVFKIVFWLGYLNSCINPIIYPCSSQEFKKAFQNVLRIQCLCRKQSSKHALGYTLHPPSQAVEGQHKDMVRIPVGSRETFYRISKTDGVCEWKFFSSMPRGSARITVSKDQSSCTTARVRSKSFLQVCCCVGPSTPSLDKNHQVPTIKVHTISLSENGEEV
T2 sequence (P25100 whole entry): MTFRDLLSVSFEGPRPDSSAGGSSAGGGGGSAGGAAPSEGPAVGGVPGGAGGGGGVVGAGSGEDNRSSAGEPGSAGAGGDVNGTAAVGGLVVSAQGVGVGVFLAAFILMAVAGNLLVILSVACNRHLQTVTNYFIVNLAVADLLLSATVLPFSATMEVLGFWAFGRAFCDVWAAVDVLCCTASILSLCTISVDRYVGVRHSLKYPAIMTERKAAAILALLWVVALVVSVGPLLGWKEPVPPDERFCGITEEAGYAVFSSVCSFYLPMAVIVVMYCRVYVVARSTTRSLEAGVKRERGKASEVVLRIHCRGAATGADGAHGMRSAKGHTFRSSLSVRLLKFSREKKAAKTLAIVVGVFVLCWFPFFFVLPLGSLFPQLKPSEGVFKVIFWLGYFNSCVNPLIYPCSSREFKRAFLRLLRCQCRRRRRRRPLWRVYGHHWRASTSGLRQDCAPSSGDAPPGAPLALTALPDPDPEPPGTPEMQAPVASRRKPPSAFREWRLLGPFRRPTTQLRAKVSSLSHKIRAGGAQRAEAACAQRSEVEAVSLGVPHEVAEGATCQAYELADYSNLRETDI
T2 sequence (P35368 whole entry): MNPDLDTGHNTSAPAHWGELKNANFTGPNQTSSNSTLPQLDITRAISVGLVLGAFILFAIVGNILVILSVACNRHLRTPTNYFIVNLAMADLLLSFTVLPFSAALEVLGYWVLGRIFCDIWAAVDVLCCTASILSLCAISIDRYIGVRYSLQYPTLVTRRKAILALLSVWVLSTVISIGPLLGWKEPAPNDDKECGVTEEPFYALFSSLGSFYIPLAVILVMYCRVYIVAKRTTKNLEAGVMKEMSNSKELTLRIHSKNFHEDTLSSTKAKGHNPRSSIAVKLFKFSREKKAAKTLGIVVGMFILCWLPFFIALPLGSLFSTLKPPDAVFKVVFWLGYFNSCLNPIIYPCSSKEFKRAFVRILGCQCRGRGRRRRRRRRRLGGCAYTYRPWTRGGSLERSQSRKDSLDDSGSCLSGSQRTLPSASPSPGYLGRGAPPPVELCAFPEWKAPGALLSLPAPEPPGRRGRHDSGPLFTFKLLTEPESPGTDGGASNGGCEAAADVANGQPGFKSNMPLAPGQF
Briefly: Binding affinity towards Alpha-1 adrenergic receptor in human brain.

Data set [3] in a line: Distribution coefficient between octanol and pH 7.2 phosphate buffer. Conditions: for logD: octanol/phosphate buffer. Type of data set: physicochemical.

Turning to `c1cc2c(cc1NC1=NCCN1)NCCN2`, the Ki in data set [1] amounted to 46 nM; in data set [2], 5100 nM.

With `Cc1c(NC2=NCCN2)ccc2nccnc12`, the Ki in data set [1] was determined as 1.3 nM; in data set [2], 1400 nM. For the same compound, in data set [3], the log distribution coefficient (logD) amounted to 0.16.

As for `Cc1c(NC2=NCCN2)ccc2c1NCCN2`, the Ki in data set [1] was 6.8 nM; in data set [2], 8700 nM. Besides, in data set [3], the logD is -2.08.

Turning to `c1cnc2cc(NC3=NCCN3)ccc2n1`, the Ki was 64 nM in data set [1] and 11000 nM in data set [2].

Turning to `Brc1c(NC2=NCCN2)ccc2c1NCCN2`, the Ki in data set [1] came out at 6 nM; in data set [2], 1100 nM. This compound displayed a logD in data set [3] of -1.74.

As for `Brc1c(NC2=NCCN2)ccc2nccnc12` [BRIMONIDINE], the “Log DC” value in data set [3] (octanol/water) came out at 1.5.
